Reference: US20210361600A1, “METHODS FOR INDUCING CHONDROGENESIS” (THE SCRIPPS RESEARCH INSTITUTE, priority 2017, published 2021)
Where “and” joins values, the source holds several entries; their conditions need not be identical. Identical values can stand only once. Like-named read-outs stand apart in the source and are kept apart here.

Assays:
[1] = Final dose PK in the canine osteoarthritis study; type: in vivo, Beagle dogs
Experimental: Acetonitrile, water (Optima, LC/MS Grade) and formic acid, 99+% (Optima, LC/MS Grade) were purchased from Fisher Scientific. […] Chromatography HPLC column, Luna, 5 um C18 (2), 50×2.0 mm and its guard security cartridge and holder were purchased from Phenomenex. HPLC (1100 Series) was purchased from Agilent. The Mass Spectrometer system, API 3000 was purchased from SCIEX. Separation was performed on a reversed phase C18 column with a gradient elution using mobile phases of 0.1% formic acid in water (A) and 0.1% formic acid in acetonitrile (B) with flow rate at 0.6 mL/min.
Supernatant was then diluted with 0.1% formic acid in water solvent and injected onto LC-MS-MS system.
All animals were exercised 5 days a week for an hour for the duration of the study. At study day 10/11, animals began receiving weekly injections of either compound or vehicle into the surgerized joint. Blood samples were also taken pre-dose for all animals for compound determination. Animals received doses at day 10, 17, 24, 31, 38, and 45 post surgery. All intraarticular doses were standardized to 0.5 mL injections into the joint capsule via injection through the patellar ligament.
Female Beagles underwent medial meniscal tear surgery to induce osteoarthritis.

in vivo [2] = conditions: dog, iv; for AUC(0-t): AUC0-t
in vivo [3] = test: in vivo; design: species or system Crl:CD(SD) rat; conditions: rat; for half-life: t1/2
Human MSCs = test: Human chondrocyte differentiation assay; type: cell-based; conditions: 7 days; type II collagen, Sox9 and COMP immunostaining
Experimental: Human MSCs (50,000) were plated into each well of a 96-well plate and cultured overnight. […] The cells were fixed with 10% formalin solution at room temperature for 10 min, and immunostained using antibodies specific for type II collagen (Abcam), Sox9 (Santa Cruz) and cartilage oligomeric matrix protein (COMP, Santa Cruz), and fluorescently labeled secondary antibodies (Li-Cor). The total intensity of the staining was measured using Oddyssey CLx imaging system (Li-Cor). Vehicle (DMSO) was used as control to determine the basal level of chondrocyte differentiation. The result is shown in Table 1 [A: >50% increase in staining intensity compared to vehicle control; B: 30-50% increase in staining intensity compared to vehicle control].

CBFβ = CBFβ nuclear localization in hMSCs (Western blotting); type: cell-based, human; conditions: hMSCs, 1, 10 and 100 nM, 1 hour
Experimental: Primary human MSCs were obtained from Cell Applications. The hMSCs were grown in Mesenchymal Stem Cell expansion media and used between passage 2 and 8 for all experiments. Nuclear cell lysate fractionation and western blotting
The cells were scraped off the dishes mechanically, and pipetted gently to break the cell debris. The cell lysate was centrifuged at 2000 rpm at 4° C. for 5 min and the supernatant was saved as the cytosolic fraction. The pellet was washed with washing buffer (20 mM HEPES, pH 7.9, 20% glycerol, 0.2 mM EDTA, 1 mM DTT and protease inhibitor cocktail) once and centrifuged at 2000 rpm for 5 min. The supernatant was discarded, the pellets were suspended in nuclear extraction buffer (2 mM HEPES, pH7.9, 400 mM NaCl, 20% glycerol, 0.2 mM EDTA, 1 mM DTT and protease inhibitor cocktail) and then incubated on ice for 45 min. The mixture was centrifuged at 13,000 rpm for 15 min at 4° C., and the supernatant was saved as nuclear fraction.
Proteins were resolved using SDS-PAGE gel electrophoresis, transferred to a PVDF membrane using semi-dry blotting cell. The membrane was blocked in blocking buffer (LiCor) for 1 hr at room temperature, followed by incubation with primary antibody in blocking buffer at 4° C. overnight. […]

in vivo [4] = conditions: Crl:CD(SD), rat
[5] = dog, in vivo
[6] = female Beagles, 35 μg IA weekly, after 6th dose, plasma, individual animals 1-6
[7] = female, Crl:CD(SD), iv, 0.25 mg/kg
[8] = female, Crl:CD(SD), iv, 0.75 mg/kg
[9] = female, Crl:CD(SD), iv, 2.5 mg/kg
[10] = male, Crl:CD(SD), iv, 0.25 mg/kg
[11] = male, Crl:CD(SD), iv, 0.75 mg/kg
[12] = male, Crl:CD(SD), iv, 2.5 mg/kg

Q: Which results are given for `COCCc1ccc(NC(=O)c2ccccc2NS(C)(=O)=O)cc1` [Compound A, N-(4-(2-methoxyethyl)phenyl)-2-(methylsulfonamido)benzamide]?
A: plasma exposure after the final dose ([1]; 1 hour after IA administration): undetectable; Cmax ([1]; female Beagles, 35 μg (0.035 mg/knee) IA weekly, after 6th dose, plasma, individual animals 1-6): 2.22 ng/mL and 2.64 ng/mL and 1.87 ng/mL and 2.26 ng/mL and 1.08 ng/mL and 1.54 ng/mL; Tlast ([1]; female Beagles, 35 μg IA weekly, after 6th dose, plasma, Mean): 2.3 h; AUC 0-τ [1, 6]: 2.28 ng·h/mL and 3.14 ng·h/mL and 2.12 ng·h/mL and 3.58 ng·h/mL and 1.15 ng·h/mL and 1.87 ng·h/mL; Tlast [1, 6]: 2.0 h (5×) and 4.0 h; AUC ([1]; female, beagle, dog, plasma, 0.035 mg/knee, female Beagles, 35 μg IA weekly, after 6th dose, plasma, Mean, read-out: AUC 0-τ): 2.36 ng·h/mL; Cmax ([1]; female, beagle, dog, plasma, 0.035 mg/knee, female Beagles, 35 μg IA weekly, after 6th dose, plasma, Mean, read-out: Cmax): 1.94 ng/mL; half-life (in vivo [2]; both, beagle): 38.4 to 55.8 min; AUC(0-t) (in vivo [2]; female, Beagle, 0.125 mg/kg): 131 ng·h/mL; Cmax (in vivo [2]; female, Beagle, 0.125 mg/kg): 181 ng/mL; AUC(0-t) (in vivo [2]; female, Beagle, 0.6 mg/kg): 1230 ng·h/mL; Cmax (in vivo [2]; female, Beagle, 0.6 mg/kg): 1330 ng/mL; AUC(0-t) (in vivo [2]; female, Beagle, 1.25 mg/kg): 2150 ng·h/mL; Cmax (in vivo [2]; female, Beagle, 1.25 mg/kg): 2460 ng/mL; Vd (in vivo [2]; female, beagle): 0.534 to 0.855 L/kg; clearance (in vivo [2]; female, beagle): 8.2 to 16.4 mL/min/kg; AUC(0-t) (in vivo [2]; female, beagle, 0.125 mg/kg): 178 ng·h/mL; AUC(0-t) (in vivo [2]; female, beagle, 0.6 mg/kg): 1200 ng·h/mL; Vd (in vivo [2]; male, beagle): 0.44 to 0.692 L/kg; clearance (in vivo [2]; male, beagle): 7.25 to 11.4 mL/min/kg; AUC(0-t) (in vivo [2]; male, beagle, 0.125 mg/kg): 181 ng·h/mL; Cmax (in vivo [2]; male, beagle, 0.125 mg/kg): 308 ng/mL; AUC(0-t) (in vivo [2]; male, beagle, 0.6 mg/kg): 1190 ng·h/mL; Cmax (in vivo [2]; male, beagle, 0.6 mg/kg): 2100 ng/mL; AUC(0-t) (in vivo [2]; male, beagle, 1.25 mg/kg): 2600 ng·h/mL; Cmax (in vivo [2]; male, beagle, 1.25 mg/kg): 2580 ng/mL; time up to which quantifiable in the plasma of all animals (in vivo [3]; both, Crl:CD(SD), iv): at least 4 hours; AUC(0-t) (in vivo [3]; [7]): 764 ng·h/mL; Cmax (in vivo [3]; [7]): 1380 ng/mL; t1/2 (in vivo [3]; [7]): 32.4 min; AUC(0-t) (in vivo [3]; female, Crl:CD(SD), iv, 0.25 mg/kg, AUC0-t): 871 ng·h/mL; Cmax (in vivo [3]; female, Crl:CD(SD), iv, 0.25 mg/kg, Cmax): 1230 ng/mL; half-life (in vivo [3]; [7]): 34.8 min; AUC(0-t) (in vivo [3]; [8]): 1920 ng·h/mL; Cmax (in vivo [3]; [8]): 4800 ng/mL; t1/2 (in vivo [3]; [8]): 28.8 min; AUC(0-t) (in vivo [3]; female, Crl:CD(SD), iv, 0.75 mg/kg, AUC0-t): 2250 ng·h/mL; Cmax (in vivo [3]; female, Crl:CD(SD), iv, 0.75 mg/kg, Cmax): 3490 ng/mL; half-life (in vivo [3]; [8]): 35.4 min; t1/2 (in vivo [3]; [9]): 43.8 min; half-life (in vivo [3]; [9]): 37.8 min; AUC(0-t) (in vivo [3]; [10]): 633 ng·h/mL; Cmax (in vivo [3]; [10]): 2060 ng/mL; t1/2 (in vivo [3]; [10]): 25.2 min; AUC(0-t) (in vivo [3]; male, Crl:CD(SD), iv, 0.25 mg/kg, AUC0-t): 657 ng·h/mL; Cmax (in vivo [3]; male, Crl:CD(SD), iv, 0.25 mg/kg, Cmax): 1940 ng/mL; half-life (in vivo [3]; [10]): 23.4 min; AUC(0-t) (in vivo [3]; [11]): 2160 ng·h/mL; t1/2 (in vivo [3]; [11]): 25.8 min; AUC(0-t) (in vivo [3]; male, Crl:CD(SD), iv, 0.75 mg/kg, AUC0-t): 3120 ng·h/mL; half-life (in vivo [3]; [11]): 37.8 min; t1/2 (in vivo [3]; [12]): 42.6 min; half-life (in vivo [3]; [12]): 38.4 min; gender differences in mean Cmax and mean AUC0-t (in vivo [3]): no significant gender differences; differences in systemic exposure following single and repeated IV administration (in vivo [3]; iv): no significant; Biological Activity (increase in staining intensity compared to vehicle control) (Human MSCs): A (>50% increase in staining intensity compared to vehicle control); CBFβ levels in the nuclear fraction (CBFβ): increase; time up to which quantifiable in the plasma of all animals (in vivo [4]; both): at least 2 hours; AUC(0-t) (in vivo [4]; female, 70 ug/kg): 20.3 ng·h/mL; Cmax (in vivo [4]; female, 70 ug/kg): 11.6 ng/mL; AUC(0-t) (in vivo [4]; female, 70 ug/kg, AUC0-t): 18.5 ng·h/mL; Cmax (in vivo [4]; female, 70 ug/kg, Cmax): 19.5 ng/mL; AUC(0-t) (in vivo [4]; female, 140 ug/kg): 52.3 ng·h/mL; Cmax (in vivo [4]; female, 140 ug/kg): 34.5 ng/mL; AUC(0-t) (in vivo [4]; female, 140 ug/kg, AUC0-t): 43.5 ng·h/mL; Cmax (in vivo [4]; female, 140 ug/kg, Cmax): 42.3 ng/mL; AUC(0-t) (in vivo [4]; female, 200 ug/kg): 64.9 ng·h/mL; AUC(0-t) (in vivo [4]; female, 200 ug/kg, AUC0-t): 39.3 ng·h/mL; Cmax (in vivo [4]; female, 200 ug/kg, Cmax): 59.8 ng/mL; AUC(0-t) (in vivo [4]; male, 70 ug/kg): 8.14 ng·h/mL; Cmax (in vivo [4]; male, 70 ug/kg): 8.41 ng/mL; AUC(0-t) (in vivo [4]; male, 70 ug/kg, AUC0-t): 8.33 ng·h/mL; Cmax (in vivo [4]; male, 70 ug/kg, Cmax): 8.24 ng/mL; AUC(0-t) (in vivo [4]; male, 140 ug/kg): 18.4 ng·h/mL; Cmax (in vivo [4]; male, 140 ug/kg): 18.6 ng/mL; AUC(0-t) (in vivo [4]; male, 140 ug/kg, AUC0-t): 15.4 ng·h/mL; Cmax (in vivo [4]; male, 140 ug/kg, Cmax): 23.5 ng/mL; AUC(0-t) (in vivo [4]; male, 200 ug/kg): 35.5 ng·h/mL; AUC(0-t) (in vivo [4]; male, 200 ug/kg, AUC0-t): 22.9 ng·h/mL; Cmax (in vivo [4]; male, 200 ug/kg, Cmax): 33.9 ng/mL; time up to which quantifiable in the plasma of all animals ([5]; both, beagle, iv, 1.25 mg/kg): at least 12 hours; gender differences in systemic exposure (Cmax and AUC0-t) [5]: no significant gender differences; differences in systemic exposure following single and repeat weekly IV administration ([5]; iv): no significant differences; Cmax ([5]; female, Beagle, iv, 0.125 mg/kg): 209 ng/mL; Cmax ([5]; female, Beagle, iv, 0.6 mg/kg): 1190 ng/mL; AUC(0-t) ([5]; female, Beagle, iv, 1.25 mg/kg): 2300 ng·h/mL; Cmax ([5]; female, Beagle, iv, 1.25 mg/kg): 2480 ng/mL; AUC(0-t) ([5]; male, beagle, iv, 0.125 mg/kg): 211 ng·h/mL; Cmax ([5]; male, beagle, iv, 0.125 mg/kg): 197 ng/mL; AUC(0-t) ([5]; male, beagle, iv, 0.6 mg/kg): 1400 ng·h/mL; Cmax ([5]; male, beagle, iv, 0.6 mg/kg): 1140 ng/mL; AUC(0-t) ([5]; male, beagle, iv, 1.25 mg/kg): 2510 ng·h/mL; Cmax ([5]; male, beagle, iv, 1.25 mg/kg): 2150 ng/mL
